Assay results: patent US20090054486A1, “POLYMORPHIC FORM XVI OF FEXOFENADINE HYDROCHLORIDE” (Teva Pharmaceuticals USA, Inc., priority 2002, published 2009)
Structures can show the parent of a compound that is named as a salt.

Assay: Storage stability against transformation to other crystalline forms
Type: physicochemical
Method: Fexofenadine hydrochloride Form XVI is substantially stable during storage. Fexofenadine hydrochloride Form XVI is stable against transformation to other crystalline forms upon storage at relative humidity of up to about 100% for at least about 1 week, and storage at about 40° C. and about 75% relative humidity for at least about 6 months. The conversion is preferably less than about 5%, more preferably less than about 2% by weight.
In another aspect, the present invention provides for processes for preparation of fexofenadine hydrochloride Form XVI, which allow preparing fexofenadine HCl form XVI substantially free of other polymorphic forms of fexofenadine HCl, including amorphous form. As used herein, “substantially free” refers to less than about 5% on a weight basis, preferably less than about 2%, weight of polymorphic forms other than Form XVI compared to the weight of all the polymorphic forms, including Form XVI. A suitable method for determining the presence of other polymorphic forms is with X-Ray Powder diffraction.

time stable against transformation to other crystalline forms upon storage (storage at about 40° C. and about 75% relative humidity): at least 6 months
time stable against transformation to other crystalline forms upon storage (storage at relative humidity of up to about 100%): at least 1 week
Compound: CC(C)(C(=O)O)c1ccc(C(O)CCCN2CCC(C(O)(c3ccccc3)c3ccccc3)CC2)cc1 (stereo not drawn) [Fexofenadine hydrochloride Form XVI, 4-[4-[4-(hydroxydiphenylmethyl)-1-piperidinyl]-1-hydroxybutyl]-α,α-dimethylbenzeneacetic acid]
